We go through 19 compounds from patent publication US11731965B2, “Tetrahydroprotoberberine compound, preparation method therefor and uses thereof, and pharmaceutical composition” (SHANGHAI INSTITUTE OF MATERIA MEDICA, CHINESE ACADEMY OF …, priority 2017, dated 2023).

Experiment [1] deals with T1, human recombinant D1 receptor (Homo sapiens, UniProt P21728).
T1 construct: expressed in transfected cells; host or cells: HEK293
Nature of the experiment: D1 antagonistic activity test (LANCE cAMP, antagonism of dopamine-induced cAMP production in HEK293 cells). The class given is cell-based. The conditions noted are these: HEK293 cells expressing human recombinant D1 receptor; test concentration 0.1 nM to 10000 nM; read-out: D1 Antagonistic Activity (IC50, nmol/L). The method, then:
• 1) D1 antagonistic activity test
The D1 antagonism of the compound was evaluated by testing the antagonistic action of the compounds against dopamine on the induction of cAMP production in HEK293 cells. The cAMP concentration test was performed according to the method described in the kit instructions. The test concentration of the compound was 0.1 nM to 10000 nM. SCH23390 was used as a positive control. The IC50 was calculated by Excelfit software.
(In TR-FRET formats the signal depends on donor and acceptor labels being close together.)

For experiment [2], the target named is T2, human recombinant D2 receptor (Homo sapiens, UniProt P14416).
T2 construct: expressed in transfected cells; host or cells: HEK293
Nature of the experiment: D2 antagonistic activity test (LANCE cAMP, antagonism of dopamine inhibition of cAMP production in HEK293 cells). The conditions noted are these: HEK293 cells expressing human recombinant D2 receptor; test concentration 0.1 nM to 10000 nM; read-out: D2 Antagonistic Activity (IC50, nmol/L). The class given is cell-based. Here is the method: LANCE™ cAMP 384 Kit (PerkinElmer, USA) was used to test the antagonism of the compound against the D1 receptor using the HEK293 cells expressing human recombinant D1 receptor. The D1 antagonism of the compound was evaluated by testing the antagonistic action of the compounds against dopamine on the induction of cAMP production in HEK293 cells. The cAMP concentration test was performed according to the method described in the kit instructions. The test concentration of the compound was 0.1 nM to 10000 nM. SCH23390 was used as a positive control. The IC50 was calculated by Excelfit software. The test results of some compounds were shown in Table 1. • 2) D2 antagonistic activity test LANCE™ cAMP 384 Kit (PerkinElmer, USA) was used to test the antagonism of the compound against the D2 receptor using the HEK293 cells expressing human recombinant D2 receptor. The D2 antagonism of the compound was evaluated by testing the antagonistic action of the compounds against dopamine on the inhibition of cAMP production in HEK293 cells. The cAMP concentration test was performed according to the method described in the kit instructions. The test concentration of the compound was 0.1 nM to 10000 nM. Risperidone was used as a positive control. The IC50 was calculated by Excelfit software. The test results of some compounds were shown in Table 1 (ND means the test was not performed).

For experiment [3], the target named is T3, human recombinant 5-HT1A receptor (Homo sapiens, UniProt P08908).
T3 construct: expressed in transfected cells; host or cells: HEK293
T3 sequence (P08908 1-422): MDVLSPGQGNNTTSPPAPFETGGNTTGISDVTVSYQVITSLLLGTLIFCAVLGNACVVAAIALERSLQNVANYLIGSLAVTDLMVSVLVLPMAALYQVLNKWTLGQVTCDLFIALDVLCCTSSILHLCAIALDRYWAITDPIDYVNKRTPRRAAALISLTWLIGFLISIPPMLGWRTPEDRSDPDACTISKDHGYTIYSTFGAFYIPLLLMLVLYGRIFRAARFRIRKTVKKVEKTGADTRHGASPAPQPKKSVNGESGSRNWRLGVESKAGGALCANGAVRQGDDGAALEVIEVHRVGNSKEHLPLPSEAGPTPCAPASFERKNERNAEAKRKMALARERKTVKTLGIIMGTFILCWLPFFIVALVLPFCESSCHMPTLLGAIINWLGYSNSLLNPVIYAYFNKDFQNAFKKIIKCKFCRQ
Description: 5-HT1A agonistic activity test (LANCE cAMP, inhibition of cAMP production in HEK293 cells). The experiment is classed as cell-based. The conditions noted are these: HEK293 cells expressing human recombinant 5-HT1A receptor; test concentration 0.1 nM to 10000 nM; read-out: 5-HT1A Agonistic Activity (EC50, nmol/L). The method, then: • 3) 5-HT1A agonistic activity test
LANCE™ cAMP 384 Kit (PerkinElmer, USA) was used to test the agonistic effect of the compound on 5-HT1A receptor using the HEK293 cells expressing human recombinant 5-HT1A receptor. The 5-HT1A agonistic effect of the compound was evaluated by testing the inhibitory effect of the compound on cAMP production in HEK293 cells. The cAMP concentration test was performed according to the method described in the kit instructions. The test concentration of the compound was 0.1 nM to 10000 nM. 8-OH-DPAT was used as a positive control. The EC50 was calculated by Excelfit software.

For experiment [4], the system named is PCP-induced high spontaneous activity in mice. Description: PCP-induced high spontaneous activity test in mice. The conditions noted are these: dose by gavage that significantly reduces PCP (7 mg/kg ip) induced high spontaneous activity of mice vs model group. The experiment is classed as in vivo, Male ICR mice. The method, then:
PCP (phencylidine) was dissolved in physiological saline to prepare a 7 mg/kg solution. The test compound was formulated with a 0.5% CMC-Na solution to a solution with suitable concentration, ready-to-use. Male ICR mice were 18-22 g. Mice were randomly divided into a solvent control group, a model control group, a positive control group, and each test drug group during the test. There were 8 mice in each group. Mice in each group were given each test drug by gavage. 45 minutes after the test drug was administered, mice were injected with a PCP (7 mg/kg) solution intraperitoneally. The spontaneous, open field video analysis system was used to record the mouse movement trajectory within 45 min after administration of test drug or saline, and then the mouse movement trajectory within 75 min after PCP administration. Spontaneous, open field video analysis system was used to analyze the mouse's movement trajectory, and the total distance of the movement of the mice in each group was counted. The result was expressed as mean±SD. Results were analyzed by one-way analysis of variance.

Each structure is given as a SMILES string. Where a name gives a salt, the structure may show the parent alone.

T2 sequence (P14416 whole entry): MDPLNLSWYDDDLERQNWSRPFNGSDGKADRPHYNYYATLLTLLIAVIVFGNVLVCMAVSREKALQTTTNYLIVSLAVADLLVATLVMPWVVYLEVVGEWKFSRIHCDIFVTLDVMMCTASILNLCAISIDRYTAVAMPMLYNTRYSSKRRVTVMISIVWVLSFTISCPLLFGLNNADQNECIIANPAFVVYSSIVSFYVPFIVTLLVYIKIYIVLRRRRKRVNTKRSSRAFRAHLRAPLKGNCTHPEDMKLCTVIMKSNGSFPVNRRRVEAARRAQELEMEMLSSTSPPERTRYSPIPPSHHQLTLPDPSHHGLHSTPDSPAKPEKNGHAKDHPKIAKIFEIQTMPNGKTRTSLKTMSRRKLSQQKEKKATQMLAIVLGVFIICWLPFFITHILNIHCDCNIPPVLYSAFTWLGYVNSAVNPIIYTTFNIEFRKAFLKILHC
T1 sequence (P21728 whole entry): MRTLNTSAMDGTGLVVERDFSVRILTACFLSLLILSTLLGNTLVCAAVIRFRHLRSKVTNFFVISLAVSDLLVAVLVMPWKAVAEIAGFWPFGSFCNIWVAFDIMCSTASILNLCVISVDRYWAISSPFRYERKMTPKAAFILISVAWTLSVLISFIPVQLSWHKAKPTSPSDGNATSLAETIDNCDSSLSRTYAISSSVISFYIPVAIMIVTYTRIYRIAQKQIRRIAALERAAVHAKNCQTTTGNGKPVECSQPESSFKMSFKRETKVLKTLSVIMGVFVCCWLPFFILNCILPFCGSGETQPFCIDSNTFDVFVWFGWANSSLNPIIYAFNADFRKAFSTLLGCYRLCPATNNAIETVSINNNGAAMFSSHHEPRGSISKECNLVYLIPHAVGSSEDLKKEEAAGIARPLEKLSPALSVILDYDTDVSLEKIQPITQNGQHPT

As for `COc1cc2c(cc1C(N)=O)[C@@H]1Cc3ccc(OC)c(OC)c3CN1CC2` [Example 5, (S)-2-carbamoyl-3,9,10-trimethoxy-6,8,13,13a-tetrahydro-5H-dibenzo [a,g] quinolizine], the IC50 is 170 nmol/L in experiment [1] and 35 nmol/L in experiment [2]. Moreover, the EC50 in experiment [3] came to 450 nmol/L. Also, in experiment [4], the “Effective Dose” value was 10 mg/kg.
The corresponding values for `COc1cc2c(cc1CNC(C)=O)[C@@H]1Cc3ccc(OC)c(OC)c3CN1CC2` [Example 11, (S)-2-acetaminomethyl-3,9,10-trimethoxy-6,8,13,13a-tetrahydro-5H-dibenzo[a,g] quinolizine] are 500 nmol/L, 750 nmol/L, 1700 nmol/L and 10 mg/kg.
`COc1cc2c(cc1C(C)=O)[C@@H]1Cc3ccc(OC)c(OC)c3CN1CC2` [Example 12, (S)-2-acetyl-3,9,10-trimethoxy-6,8,13,13a-tetrahydro-5H-dibenzo [a,g] quinolizine]: the figures for the IC50 in experiment [1] and in experiment [2] were 240 nmol/L and 500 nmol/L, respectively. The EC50 in experiment [3] came to 2300 nmol/L.
On to `COc1cc2c(cc1NC(C)=O)[C@@H]1Cc3ccc(OC)c(OC)c3CN1CC2` [Example 14, (S)-2-acetamido-3,9,10-trimethoxy-6,8,13,13a4tetrahydro-5H-dibenzo[a,g] quinolizine hydrochloride], for which, in experiment [3], the EC50 was 514 nmol/L. Moreover, the “Effective Dose” value in experiment [4] came out at 10 mg/kg.
On to `COc1cc2c(cc1OC)[C@@H]1Cc3ccc(OC)c(C(C)=O)c3CN1CC2` [Example 21, (S)-2,3,10-trimethoxy-9-acetyl-6,8,13,13a-tetrahydro-5H-dibenzo [a,g] quinolizine], for which the IC50 in experiment [1] came out at 1500 nmol/L. Moreover, the EC50 in experiment [3] came out at 238 nmol/L. The “Effective Dose” value in experiment [4] is on record as 20 mg/kg.
With `COc1cc2c(cc1OC)[C@@H]1Cc3ccc(OC)c(CNC(C)=O)c3CN1CC2` [Example 23, (S)-2,3,10-trimethoxy-9-acetylaminomethyl-6,8,13,13a-tetrahydro-5H-dibenzo[a,g] quinolizine], the EC50 in experiment [3] is 1900 nmol/L.
Turning to `COc1cc2c(cc1OC)[C@@H]1Cc3ccc(C#N)c(OC)c3CN1CC2` [Example 27, (S)-2,3,9-trimethoxy-10-cyano-6,8,13,13a-tetrahydro-5H-dibenzo[a,g] quinolizine], the IC50 came to 311 nmol/L in experiment [1] and 1000 nmol/L in experiment [2]. The EC50 in experiment [3] worked out at 1200 nmol/L.
Take `COc1cc2c(cc1N)[C@@H]1Cc3ccc(N)c(OC)c3CN1CC2` [Example 33, (S)-2,10-diamino-3,9-dimethoxy-6,8,13,13a-tetrahydro-5H-dibenzo [a,g] quinolizine]: the IC50 in experiment [1] is 270 nmol/L; in experiment [2], 440 nmol/L. Moreover, the “Effective Dose” value in experiment [4] was 20 mg/kg.
Regarding `COc1ccc2c(c1OC)CN1CCc3cc(C#N)c(C#N)cc3C1C2` (centres unmarked) [Example 35, 2,3-dicyano-9,10-dimethoxy-6,8,13,13a-tetrahydro-5H-dibenzo[a,g] quinolizine], the EC50 in experiment [3] amounted to 5900 nmol/L.
Take `COc1ccc2c(c1OC)CN1CCc3cc4c(cc3C1C2)C(=O)NC4=O` (centres unmarked) [Example 36, 9,10-dimethoxy-5,6,13,13a-tetrahydroisoquinolino[3,2-a]pyrrolo [3,4-g]isoquinoline-1,3(2H,8H)-dione]: the IC50 in experiment [1] was determined as 26.2 nmol/L; in experiment [2], 427 nmol/L. Also, the “Effective Dose” value in experiment [4] was 10 mg/kg.
For the compound `COc1cc2c(cc1C#N)[C@@H]1Cc3ccc(C#N)c(OC)c3CN1CC2` [Example 37, (S)-2,10-dicyano-3,9-dimethoxy-6,8,13,13a-tetrahydro-5H-dibenzo [a,g] quinolizine], the IC50 turned out to be 211 nmol/L in experiment [1] and 19 nmol/L in experiment [2]. Moreover, in experiment [3], the EC50 was 3030 nmol/L.
Turning to `COc1cc2c(cc1C(N)=O)[C@@H]1Cc3ccc(C(N)=O)c(OC)c3CN1CC2` [Example 38, (S)-2,10-dicarbamoyl-3,9-dimethoxy-6,8,13,13a-tetrahydro-5H-dibenzo[a,g] quinolizine], the values for the IC50 in experiment [1] and in experiment [2] were 3400 nmol/L and 620 nmol/L, respectively. The EC50 in experiment [3] came out at 4580 nmol/L.
With `COc1ccc2c(c1OC)CN1CCc3cc(OC)c4[nH]c(=O)[nH]c4c3[C@@H]1C2` [Example 40, (S)-4,10,11-trimethoxy-3,6,7,9,14,14a-hexahydroimidazo[4,5-h] isoquinolino[3,2-a]isoquinoline-2(1H)-one], the IC50 stood at 4 nmol/L in experiment [1] and 27 nmol/L in experiment [2]. Besides, in experiment [4], the “Effective Dose” value was 20 mg/kg.
The matching figures for `COc1ccc2c(c1OC)CN1CCc3cc(OC)c4nc[nH]c4c3[C@@H]1C2` [Example 42, (S)-4,10,11-trimethoxy-1,6,7,9,14,14a-hexahydroimidazo[4,5-h] isoquinolino[3,2-a]isoquinoline]: 31.1 nmol/L, 291 nmol/L and 10 mg/kg.
For `COc1ccc2c(c1OC)CN1CCc3cc4[nH]c(=O)oc4cc3C1C2` (centres unmarked) [Example 46, 9,10-Dimethoxy-3,5,6,8,13,13a-Hexahydro-2H-isoquinolino[3,2-a] oxazolo[4,5-g]isoquinolin-2-one], the IC50 in experiment [1] is 378 nmol/L; in experiment [2], 184 nmol/L. For the same compound, the “Effective Dose” value in experiment [4] is 10 mg/kg.
The matching figures for `COc1ccc2c(c1OC)CN1CCc3cc4c(cc3C1C2)OCC(=O)N4` (centres unmarked) [Example 47, 10,11-Dimethoxy-4,6,7,9,14,14a-Hexahydroisoquinolino[3,2-a][1,4] oxazino[3,2-g]isoquinoline-3(2H)-one]: 19.9 nmol/L, 146 nmol/L and 10 mg/kg.
The matching figures for `C=CCOc1cc2c(cc1OC)CCN1Cc3c(ccc(OC)c3OC)C[C@@H]21` [Example 52, (S)-2-allyloxy-3,9,10-trimethoxy-6,8,13,13a-tetahydro-5H-dibenzo [a,g] quinolizine]: 220 nmol/L, 450 nmol/L and 20 mg/kg.
For `COc1cc2c(cc1OC1CC1)[C@@H]1Cc3ccc(OC)c(OC)c3CN1CC2` [Example 53, (S)-2-cyclopropoxy-3,9,10-trimethoxy-6,8,13,13a-tetrahydro-5H-dibenzo[a,g] quinolizine hydrochloride], the IC50 in experiment [1] is 960 nmol/L; in experiment [2], 1300 nmol/L. Also, the “Effective Dose” value in experiment [4] turned out to be 20 mg/kg.
Turning to `COc1cc2c(cc1OC)[C@@H]1Cc3ccc(OC)c(OC4CC4)c3CN1CC2` [Example 57, (S)-2,3,10-trimethoxy-9-cyclopropoxy-6,8,13,13a-tetrahydro-5H-dibenzo[a,g] quinolizine hydrochloride], the EC50 in experiment [3] was determined as 110 nmol/L. Also, the “Effective Dose” value in experiment [4] stood at 20 mg/kg.
